Patent US9982005B2, “Macrolides and methods of their preparation and use” (President and Fellows of Harvard College, priority 2013, dated 2018)
Values after ≈ are worked out from the molar mass of the structure shown. Read-outs that look alike come from different tables or passages of the source.

What was measured:
Type in all cases: cell-based
[1] = test system: S. pneumoniae strains; experiment: MIC against S. pneumoniae strains (Tables M7, M8); details: Streptococcus pneumoniae
Excerpt: CLSI standard procedures for broth dilution MIC determination were used. […] These genotypes can be constitutive or inducible.

[2] = test system: A. baumannii strains; experiment: MIC against A. baumannii strains (Table M8); details: Acinetobacter baumannii, BAA747, A. baumannii BAA747-1
[3] = test system: E. faecalis strains; experiment: MIC against E. faecalis strains (Table M8); details: Enterococcus faecalis, E. faecalis 29212
[4] = test system: H. influenzae strains; experiment: MIC against H. influenzae strains (Table M8); details: Haemophilus influenzae
Procedure, shortened: (§1)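 Novel macrolides were tested by CLSI standard broth dilution to give MIC values, with azithromycin alongside as control.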

[5] = test system: S. aureus (Newman, clinical isolate); experiment: MIC, S. aureus Newman; details: Staphylococcus aureus
Excerpt: (§2) We have collected MIC data for a total of 50 novel macrolides that this platform has produced against over 21 unique strains of B. subtilis, E. coli, S. aureus, S. pneumoniae, and H. influenzae, including several multidrug-resistant strains, with a special focus on macrolide resistant mechanisms (vide supra). Azithromycin was included as a control macrolide. CLSI standard procedures for broth dilution MIC determination were used. […] These genotypes can be constitutive or inducible. The finding that C4-epi (unnatural) isomers of the “azaketolide” macrolide class have enhanced activities relative to C4 natural isomers is very exciting.

[6] = test system: E. coli strains; experiment: MIC against E. coli strains (Table M7); details: Escherichia coli, ATCC25922, E. coli ATCC 25922
Procedure, shortened: as §1

[7] = test system: E. coli (MC4100); experiment: MIC, E. coli MC4100
Excerpt: as §2

[8] = test system: S. aureus strains; experiment: MIC against S. aureus strains (Table M7); details: Staphylococcus aureus
Procedure, shortened: as §1

[9] = test system: K. pneumoniae strains; experiment: MIC against K. pneumoniae strains (Table M8); details: Klebsiella pneumoniae, K. pneumoniae 10031
[10] = test system: EC882 E. coli imp; experiment: broth dilution MIC, E. coli EC882; details: Escherichia coli
Procedure, shortened: as §1

[11] = test system: BS1723 B. subtilis BS168 WT wild type; experiment: broth dilution MIC, B. subtilis BS1723; details: Bacillus subtilis, BS1723 B. subtilis BS168 WT wild type; read-out: MIC
Procedure, shortened: as §1

[12] = test system: BS1725 B. subtilis ermC; experiment: broth dilution MIC, B. subtilis BS1725; details: Bacillus subtilis
Procedure, shortened: as §1

[13] = test system: EC878 E. coli tolC; experiment: broth dilution MIC, E. coli EC878; details: Escherichia coli
Procedure, shortened: as §1

[14] = test system: EC107 E. coli ATCC25922; experiment: broth dilution MIC, E. coli EC107; details: Escherichia coli, read-out: MIC
Procedure, shortened: as §1

[15] = test system: SA101 S. aureus ATCC29213; experiment: broth dilution MIC, S. aureus SA101; details: Staphylococcus aureus, ATCC29213, SA101 S. aureus ATCC29213; read-out: MIC
Procedure, shortened: as §1

[16] = S. pneumoniae 160, read-out: MIC S. pneumonae (160)
[17] = S. pneumoniae 1509, read-out: MIC S. pneumoniae (1509)
[18] = S. pneumoniae 1533, read-out: MIC S. pneumoniae (1533)
[19] = S. pneumoniae 1537, read-out: MIC S. pneumoniae (1537)
[20] = S. pneumoniae 49619, read-out: MIC S. pneumoniae (49619)
[21] = H. influenzae 49247, read-out: MIC H. influenzae (49247)
[22] = H. influenzae 49766, read-out: MIC H. influenzae (49766)
[23] = S. aureus (Neuman, clinical isolate), round 2
[24] = S. aureus (Newman, clinical isolate), round 1
[25] = Escherichia coli, round 1, read-out: MIC
[26] = ATCC29213, S. aureus ATCC 29213, read-out: MIC S. aureus (ATCC 29213)
[27] = S. aureus 506, read-out: MIC S. aureus (506)
[28] = S. aureus 1708, read-out: MIC S. aureus (1708)
[29] = USA300, S. aureus USA300, read-out: MIC S. aureus (USA300)
[30] = Escherichia coli, round 2, read-out: MIC

Row | Compound | MIC [1, 16] | MIC [1, 17] | MIC [1, 18] | MIC [1, 19] | MIC [1, 20] | MIC [2] | MIC [3] | MIC [4, 21] | MIC [4, 22] | MIC [5, 23] | MIC [5, 24] | MIC [6] | MIC [7, 25] | MIC [8, 26] | MIC [8, 27] | MIC [8, 28] | MIC [8, 29] | MIC [9] | MIC [7, 30] | further results
1 | CC[C@H]1OC(=O)[C@H](C)C(=O)[C@H](C)[C@@H](O[C@@H]2OC(C)CC(N(C)C)C2O)[C@](C)(OC/C=C/c2cnc3ccccc3c2)C[C@@H](C)CN[C@H](C)[C@H]2NC(=O)O[C@@]21C (some centres unmarked) [FSM-20919] | ≤ 0.0625 µg/mL | 0.5 µg/mL (≈ 0.652 µM) | 32 µg/mL (≈ 41.7 µM) | 32 µg/mL (≈ 41.7 µM) | ≤ 0.0625 µg/mL | 16 µg/mL (≈ 20.9 µM) | 0.5 µg/mL (≈ 0.652 µM) | 1 µg/mL (≈ 1.3 µM) | 4 µg/mL (≈ 5.22 µM) | 0.5 µg/mL (≈ 0.652 µM) | 0.25 µg/mL (≈ 0.326 µM) | 4 µg/mL (≈ 5.22 µM) | 2 µg/mL (≈ 2.61 µM) | 0.25 µg/mL (≈ 0.326 µM) | > 32 µg/mL | 0.25 µg/mL (≈ 0.326 µM) | 0.5 µg/mL (≈ 0.652 µM) | 16 µg/mL (≈ 20.9 µM) |  | MIC ([7]; round 2): 2 µg/mL (≈ 2.61 µM); MIC ([8]; S. aureus 183, read-out: MIC S. aureus (183)): > 32 µg/mL
2 | CC[C@H]1OC(=O)[C@H](C)C(=O)C[C@@H](O[C@@H]2OC(C)CC(N(C)C)C2O)[C@@](C)(OC)C[C@@H](C)CN[C@H](C)[C@H]2N(CCCCn3cc(-c4cccc(N)c4)nn3)C(=O)O[C@]12C (some centres unmarked) [FSM-30502] | > 32 µg/mL | > 32 µg/mL | > 32 µg/mL | > 32 µg/mL | > 32 µg/mL | > 32 µg/mL | > 32 µg/mL | 16 µg/mL (≈ 19.7 µM) | > 32 µg/mL |  |  | > 32 µg/mL |  | > 32 µg/mL | > 32 µg/mL | > 32 µg/mL | > 32 µg/mL | > 32 µg/mL |  | MIC [10]: > 32 µg/mL; MIC [11]: > 32 µg/mL; MIC ([12]; BS1725 B. subtilis ermC (+ery)): > 32 µg/mL; MIC ([12]; BS1725 B. subtilis ermC (−ery)): > 32 µg/mL; MIC [13]: > 32 µg/mL; MIC [14]: > 32 µg/mL; MIC [15]: > 32 µg/mL
3 | CC[C@H]1OC(=O)[C@H](C)C(=O)[C@H](C)[C@@H](O[C@@H]2OC(C)CC(N(C)C)C2O)[C@](C)(OC)CCN[C@H](C)[C@H]2N(CCCCn3cc(-c4cccc(N)c4)nn3)C(=O)O[C@]12C (some centres unmarked) [FSM-30622] | > 32 µg/mL | > 32 µg/mL | > 32 µg/mL | > 32 µg/mL | > 32 µg/mL | > 32 µg/mL | > 32 µg/mL | > 32 µg/mL | > 32 µg/mL | > 32 µg/mL |  | > 32 µg/mL |  | > 32 µg/mL | > 32 µg/mL | > 32 µg/mL | > 32 µg/mL | > 32 µg/mL | > 32 µg/mL | 
4 | CC[C@H]1OC(=O)[C@H](C)C(=O)[C@H](C)[C@@H](O[C@@H]2OC(C)CC(N(C)C)C2O)/C(C)=C/CN[C@H](C)[C@H]2N(CCCCn3cc(-c4cccc(N)c4)nn3)C(=O)O[C@]12C (some centres unmarked) [FSM-30624] |  |  |  |  |  |  |  |  |  | > 32 µg/mL |  |  |  |  |  |  |  |  | > 32 µg/mL | 
5 | CC[C@H]1OC(=O)[C@H](C)C(=O)[C@H](C)[C@@H](O[C@@H]2OC(C)CC(N(C)C)C2O)/C(C)=C/CN[C@H](C)[C@H]2N(CCCCn3cc(-c4ccccn4)nn3)C(=O)O[C@]12C (some centres unmarked) [FSM-30625] |  |  |  |  |  |  |  |  |  | > 32 µg/mL |  |  |  |  |  |  |  |  | > 32 µg/mL | 
6 | CC[C@H]1OC(=O)[C@H](C)C(=O)[C@H](C)[C@@H](O[C@@H]2OC(C)CC(N(C)C)C2O)/C(C)=C/CN(C)[C@H](C)[C@H]2N(CCCCn3cc(-c4cccc(N)c4)nn3)C(=O)O[C@]12C (some centres unmarked) [FSM-30633] | > 32 µg/mL | > 32 µg/mL | > 32 µg/mL | > 32 µg/mL | > 32 µg/mL | > 32 µg/mL | > 32 µg/mL | 32 µg/mL (≈ 40.9 µM) | > 32 µg/mL | > 32 µg/mL |  | > 32 µg/mL |  | > 32 µg/mL | > 32 µg/mL | > 32 µg/mL | > 32 µg/mL | > 32 µg/mL | > 32 µg/mL | 
7 | CC[C@H]1OC(=O)[C@H](C)C(=O)[C@H](C)[C@@H](O[C@@H]2OC(C)CC(N(C)C)C2O)[C@](C)(OC)C[C@@H](C)CN[C@H](C)[C@H]2N(CCCn3cc(-c4cccc(N)c4)nn3)C(=O)O[C@]12C (some centres unmarked) [FSM-40347] | 0.125 µg/mL (≈ 0.154 µM) | 32 µg/mL (≈ 39.3 µM) | > 32 µg/mL | > 32 µg/mL | 0.25 µg/mL (≈ 0.307 µM) | 8 µg/mL (≈ 9.83 µM) | 0.25 µg/mL (≈ 0.307 µM) | 0.5 µg/mL (≈ 0.614 µM) | 4 µg/mL (≈ 4.91 µM) |  | 2 µg/mL (≈ 2.46 µM) | 8 µg/mL (≈ 9.83 µM) | 8 µg/mL (≈ 9.83 µM) | 4 µg/mL (≈ 4.91 µM) | > 32 µg/mL | 4 µg/mL (≈ 4.91 µM) | 4 µg/mL (≈ 4.91 µM) | 2 µg/mL (≈ 2.46 µM) |  | 
8 | CC[C@H]1OC(=O)[C@H](C)C(=O)[C@H](C)[C@@H](O[C@@H]2OC(C)CC(N(C)C)C2O)[C@](C)(OC)C[C@@H](C)CN[C@H](C)[C@H]2N(CCCn3cc(-c4ccccn4)nn3)C(=O)O[C@]12C (some centres unmarked) [FSM-40348] |  |  |  |  |  |  |  |  |  |  | 8 µg/mL (≈ 10 µM) |  | > 32 µg/mL |  |  |  |  |  |  | 
9 | CC[C@H]1OC(=O)[C@H](C)C(=O)[C@H](C)[C@@H](O[C@@H]2OC(C)CC(N(C)C)C2O)[C@](C)(OC)C[C@@H](C)CN[C@H](C)[C@H]2N(CCCCCn3cc(-c4cccc(N)c4)nn3)C(=O)O[C@]12C (some centres unmarked) [FSM-40349] | 0.125 µg/mL (≈ 0.148 µM) | 2 µg/mL (≈ 2.38 µM) | > 32 µg/mL | > 32 µg/mL | ≤ 0.0625 µg/mL | 32 µg/mL (≈ 38 µM) | 0.125 µg/mL (≈ 0.148 µM) | 0.5 µg/mL (≈ 0.594 µM) | 2 µg/mL (≈ 2.38 µM) |  | 2 µg/mL (≈ 2.38 µM) | 8 µg/mL (≈ 9.5 µM) | 16 µg/mL (≈ 19 µM) | 1 µg/mL (≈ 1.19 µM) | > 32 µg/mL | 1 µg/mL (≈ 1.19 µM) | 2 µg/mL (≈ 2.38 µM) | 2 µg/mL (≈ 2.38 µM) |  | 
10 | CC[C@H]1OC(=O)[C@H](C)C(=O)[C@H](C)[C@@H](O[C@@H]2OC(C)CC(N(C)C)C2O)[C@](C)(OC)C[C@@H](C)CN[C@H](C)[C@H]2N(CCCCCn3cc(-c4ccccn4)nn3)C(=O)O[C@]12C (some centres unmarked) [FSM-40350] |  |  |  |  |  |  |  |  |  |  | 2 µg/mL (≈ 2.42 µM) |  | 16 µg/mL (≈ 19.3 µM) |  |  |  |  |  |  | 
11 | CC[C@H]1OC(=O)CC(=O)[C@H](C)[C@@H](O[C@@H]2OC(C)CC(N(C)C)C2O)[C@](C)(OC)C[C@@H](C)CN[C@H](C)[C@H]2N(CCCCn3cc(-c4ccccn4)nn3)C(=O)O[C@]12C (some centres unmarked) [FSM-56139] |  |  |  |  |  |  |  |  |  | 16 µg/mL (≈ 20 µM) |  |  |  |  |  |  |  |  | 32 µg/mL (≈ 40 µM) | 
12 | CC[C@H]1OC(=O)[C@H](Cc2ccccc2)C(=O)[C@H](C)[C@@H](O[C@@H]2OC(C)CC(N(C)C)C2O)[C@](C)(OC)C[C@@H](C)CN[C@H](C)[C@H]2N(CCCCn3cc(-c4cccc(N)c4)nn3)C(=O)O[C@]12C (some centres unmarked) [FSM-56158] |  |  |  |  |  |  |  |  |  | 8 µg/mL (≈ 8.85 µM) |  |  |  |  |  |  |  |  | 32 µg/mL (≈ 35.4 µM) | 
